In the oligonucleotide strings, read from the 5' end, every base follows the letter of its sugar. An asterisk marks phosphorothioate; unmarked linkages are phosphodiester. Other units and linkages are bracketed, terminal groups are in braces. A string of capitals states the bases alone. d = 2'-deoxy (DNA); m = 2'-O-methyl
What follows are substances tested against T1, human TLR9 (Homo sapiens, UniProt Q9NR96) (assay: HEK-TLR9 NF-κB-luciferase reporter, ODN2006 stimulation). Details: HEK-TLR9; 500 nM ASO 45 min, then 200 nM ODN2006 overnight; percentage of ODN2006 only.
T1 construct: HA; host or cells: 293XL-hTLR9-HA (HEK293)
T1 sequence (Q9NR96 26-1032): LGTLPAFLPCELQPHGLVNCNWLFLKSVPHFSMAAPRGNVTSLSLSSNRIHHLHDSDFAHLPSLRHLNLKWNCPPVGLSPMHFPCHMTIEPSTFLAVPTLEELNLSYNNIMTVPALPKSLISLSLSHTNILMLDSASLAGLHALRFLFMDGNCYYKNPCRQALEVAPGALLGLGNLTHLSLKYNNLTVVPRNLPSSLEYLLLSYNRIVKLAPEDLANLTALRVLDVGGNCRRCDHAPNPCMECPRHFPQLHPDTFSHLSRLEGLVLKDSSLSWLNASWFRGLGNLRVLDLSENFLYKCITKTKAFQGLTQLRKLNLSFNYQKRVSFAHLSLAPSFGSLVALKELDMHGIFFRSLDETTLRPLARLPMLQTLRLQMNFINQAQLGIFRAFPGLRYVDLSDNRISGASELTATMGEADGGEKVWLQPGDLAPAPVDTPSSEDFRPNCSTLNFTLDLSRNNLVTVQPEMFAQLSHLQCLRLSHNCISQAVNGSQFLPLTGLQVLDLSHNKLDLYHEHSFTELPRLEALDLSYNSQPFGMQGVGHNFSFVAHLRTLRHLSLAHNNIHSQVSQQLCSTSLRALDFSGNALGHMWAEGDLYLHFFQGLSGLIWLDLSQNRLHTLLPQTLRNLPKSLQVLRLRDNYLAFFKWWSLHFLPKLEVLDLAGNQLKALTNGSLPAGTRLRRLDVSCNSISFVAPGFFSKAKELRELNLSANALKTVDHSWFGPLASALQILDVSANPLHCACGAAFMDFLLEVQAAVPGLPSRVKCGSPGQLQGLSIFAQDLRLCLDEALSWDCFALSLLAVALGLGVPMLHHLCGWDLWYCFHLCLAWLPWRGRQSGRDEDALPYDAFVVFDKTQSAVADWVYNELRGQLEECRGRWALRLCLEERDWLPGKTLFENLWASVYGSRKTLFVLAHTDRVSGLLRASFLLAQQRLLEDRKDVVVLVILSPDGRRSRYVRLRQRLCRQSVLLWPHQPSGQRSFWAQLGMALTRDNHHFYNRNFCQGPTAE
Type: cell-based

Substance	TLR9-500 nM: averaged NF-κB-Luciferase relative to ODN2006
mU*mC*mU*mC*mU*C*T*G*G*T*C*C*C*A*T*mC*mC*mC*mU*mU (mU*mC*mU*mC*mU*dC*dT*dG*dG*dT*dC*dC*dC*dA*dT*mC*mC*mC*mU*mU; antisense) [[LINC-PINT]110]	74.25%
mU*mC*mU*mC*mU*G*G*T*C*C*C*A*T*C*C*mC*mU*mU*mC*mU (UCUCUGGTCCCATCCCUUCU; antisense; sugars from the 5' end m5 d10 m5, all phosphorothioate, methylation of C not given here) [[LINC-PINT]108]	100.51%
mU*mC*mU*mG*mG*T*C*C*C*A*T*C*C*C*T*mU*mC*mU*mG*mC (UCUGGTCCCATCCCTUCUGC; antisense; sugars from the 5' end m5 d10 m5, all phosphorothioate, methylation of C not given here) [[LINC-PINT]106]	56.60%
mU*mG*mA*mC*mA*A*A*A*C*A*A*T*A*A*T*mA*mA*mC*mA*mG (mU*mG*mA*mC*mA*dA*dA*dA*dC*dA*dA*dT*dA*dA*dT*mA*mA*mC*mA*mG) [[LINC-PINT]384]	53.61%
mU*mG*mA*mC*mA*T*T*T*C*G*T*G*G*C*T*mC*mC*mU*mA*mC (mU*mG*mA*mC*mA*dT*dT*dT*dC*dG*dT*dG*dG*dC*dT*mC*mC*mU*mA*mC; antisense) [[LINC-PINT]523 KL]	118.29%
mU*mG*mA*mU*mG*A*T*G*C*T*T*G*C*A*G*mG*mA*mG*mG*mC (mU*mG*mA*mU*mG*dA*dT*dG*dC*dT*dT*dG*dC*dA*dG*mG*mA*mG*mG*mC) [[LINC-PINT|283.1]	65.76%
mU*mG*mG*mC*mG*T*A*G*T*T*T*C*T*C*T*mU*mC*mC*mU*mC (mU*mG*mG*mC*mG*dT*dA*dG*dT*dT*dT*dC*dT*dC*dT*mU*mC*mC*mU*mC; antisense) [[LINC-PINT]937.1]	79.89%
mU*mG*mU*mG*mA*A*A*A*G*A*T*T*A*T*C*mU*mU*mC*mU*mU (UGUGAAAAGATTATCUUCUU; sugars from the 5' end m5 d10 m5, all phosphorothioate, methylation of C not given here) [[CDKN2B-AS1]2137]	62.16%
mU*mG*mU*mU*mU*C*C*C*C*G*G*A*G*A*G*mC*mA*mA*mU*mG (UGUUUCCCCGGAGAGCAAUG; antisense; sugars from the 5' end m5 d10 m5, all phosphorothioate, methylation of C not given here) [[LINC-PINT]501 KL]	71.47%
mU*mU*mA*mA*mA*T*A*A*T*C*T*A*G*T*T*mU*mG*mA*mA*mG (UUAAATAATCTAGTTUGAAG; sugars from the 5' end m5 d10 m5, all phosphorothioate, methylation of C not given here) [[CDKN2B-AS1]132]	98.18%
mU*mU*mA*mG*mC*T*C*C*T*T*G*C*C*T*C*mG*mU*mU*mC*mC (mU*mU*mA*mG*mC*dT*dC*dC*dT*dT*dG*dC*dC*dT*dC*mG*mU*mU*mC*mC; antisense) [[LINC-PINT] 1222]	78.17%
mU*mU*mC*mU*mC*T*C*T*G*G*T*C*C*C*A*mU*mC*mC*mC*mU (mU*mU*mC*mU*mC*dT*dC*dT*dG*dG*dT*dC*dC*dC*dA*mU*mC*mC*mC*mU; antisense) [[LINC-PINT]111]	98.01%
mU*mU*mG*mG*mC*C*T*G*T*G*G*A*T*G*C*mU*mU*mU*mG*mU (mU*mU*mG*mG*mC*dC*dT*dG*dT*dG*dG*dA*dT*dG*dC*mU*mU*mU*mG*mU) [[LINC-PINT]2673.1]	40.71%
mU*mU*mG*mU*mG*A*A*A*A*G*A*T*T*A*T*mC*mU*mU*mC*mU (mU*mU*mG*mU*mG*dA*dA*dA*dA*dG*dA*dT*dT*dA*dT*mC*mU*mU*mC*mU) [[CDKN2B-AS1]2138]	61.15%
mU*mU*mU*mG*mA*A*A*T*T*C*A*G*A*A*G*mA*mU*mU*mU*mG (mU*mU*mU*mG*mA*dA*dA*dT*dT*dC*dA*dG*dA*dA*dG*mA*mU*mU*mU*mG) [[LINC PINT|2690]	54.33%
